Values after ≈ are worked out from the molar mass of the structure shown.
How the values were obtained:
CYP1A2 = test: CYP450 reaction phenotyping, CYP1A2-Silensomes; assay type: in vitro ADME, human
From the text: (§1) Silensomes™ CYP phenotyping kits (Lonza; Basel, Switzerland) contain human pooled liver microsomes (HLM) that are chemically and irreversibly inactivated by mechanism-based inhibitor for each specific CYP450 isoenzyme. Each CYP-Silensomes™ has a corresponding control that is produced the same way without inactivation. […] However, CYP2C19-Silensomes™ were not available for purchasing. The assay was essentially performed according to the instructions of the supplier. […] At 0, 10, 20, 30, and 45 min, 50 µL of the reaction volume was removed and put in a tube containing 50 µL of methanol to stop the CYP reactions. The tubes were allowed to stand at 4 °C for 1 h to allow protein precipitation to occur. Afterwards, the tubes were centrifuged at 3500 × g for 15 min at 4 °C before the supernatant was removed and analyzed using LC–MS/MS. The control experiments with the control HLM were performed at the same time as the Silensomes™. The in vitro intrinsic clearance (Clint) for each enzyme was calculated as follows: Clint (µL/min/mg) = (slope × V)/P, where the slope is the elimination rate constant (min^−1) for exponential substrate loss, V is the incubation volume (µL), and P is the microsomal protein (mg). The fraction metabolized by each CYP enzymes was determined as follows: fm = (1 – (Clint CYP-Silensomes™/Clint Control-Silensomes™)) × 100. Three independent experiments were conducted with the same batch of Silensomes™.

CYP3A4 [1] = test: CYP450 reaction phenotyping, CYP3A4-Silensomes; assay type: in vitro ADME, human
From the text: as §1, with “Three independent experiments were conducted with the same batch of Silensomes™.” left out

WST-1 cytotoxicity assay = assay type: cell-based, human; details: human, differentiated HepaRG cells, WST-1 assay, 72 h incubation
Procedure: (§2) Wild-type human hepatoma HepaRG cells obtained from Biopredic International (Saint Grégoire, France) were cultivated for 4 weeks in a Binder cell culture incubator maintained at 37 °C in a 5% humidified atmosphere with 5% CO2 before they were employed in this study. The 4 weeks consisted of 2 weeks of proliferation and 2 weeks of differentiation. […]
(§3) Cytotoxicity assays were performed in 96-well plates at a density of 9000 cells per well, and test compounds were incubated for 72 h. […] After the 30-min incubation with WST-1, absorbance was measured at 450 nm corrected by a reference at 620 nm (λexc = 450 nm/λemi = 620 nm) using an Infinite M200 PRO plate reader (Tecan; Männedorf, Switzerland). […] The absorbed dye was quantified by fluorescence measurement (λexc = 530 nm/λemi = 645 nm) on an Infinite M200 PRO plate reader (Tecan; Männedorf, Switzerland). Background corrected viability values of both assays were expressed as a percentage of untreated cells. […] Means and standard deviations for each treatment were calculated. […]

CYP3A4 [2] = details: clearance of DIF in healthy human adults; ref Wetmore et al. (2014); cited from earlier work
UGT1A4 = details: clearance of DIF in healthy human adults; ref Wetmore et al. (2014); cited from earlier work
HepaRG cells [3] = test: Total RNA sequencing, differential gene expression; details: 24 h, vs solvent control
CYP2C9 [4] = test: CYP450 reaction phenotyping, CYP2C9-Silensomes; assay type: in vitro ADME; details: human, pH 7.4
From the text: as §1, with “Three independent experiments were conducted with the same batch of Silensomes™.” left out

CYP2C9 [5] = details: clearance of DIF in healthy human adults; ref Wetmore et al. (2014); cited from earlier work
[6] = Neutral red uptake (NRU) cytotoxicity assay; assay type: cell-based, human; details: human, differentiated HepaRG cells, NRU assay, 72-h incubation
Procedure: as §2, §3

[7] = CYP450 reaction phenotyping, control-Silensomes; assay type: in vitro ADME, human
From the text: as §1, with “Three independent experiments were conducted with the same batch of Silensomes™.” left out

HepaRG cells [8] = test: Quantification of DIF in cell culture supernatant (LC-MS/MS); details: 24-h treatment of HepaRG cells; µg DIF in medium/µg start concentration × 100%
Procedure: HepaRG cells were incubated for 24 h at 37 °C and 5% CO2 in a humidified atmosphere with each test compound in treatment medium of 0.5% final DMSO concentration. After incubation, medium was harvested and cells were washed twice with 0.5 mL PBS, which was added to the harvested medium. Cell lysis was performed on ice by adding 0.55 mL of RIPA Lysis and Extraction Buffer (Thermo Fisher Scientific, Waltham, Massachusetts, USA) in each well. The experiment was conducted in duplicates, which were pooled to make a final volume of 3 mL for medium samples and 1.1 ml of the cell samples for each test compound. The Pierce™ BCA Protein Assay Kit (Thermo Fisher Scientific, Waltham, Massachusetts, USA) was utilized to quantify protein in 50 µL of the cell lysates in order to normalize the measured pesticide concentrations in cells to absolute protein quantities.
Briefly, each of the 1.5 mL of medium samples and 500 µL cell samples was added to 50 mL centrifuge tubes. Up to 5 mL Milli-Q water was added followed by 10 mL acetonitrile. The mixture was shaken vigorously by a vortex mixer for 10 min. […]
Samples from the CYP450 reaction phenotyping and pesticide quantification were analyzed with an Agilent 1290 Infinity II LC system coupled to Agilent 6475 triple quadrupole LC/MS systems (Agilent Technologies; Heilbronn, Germany). […]

[9] = high sub-cytotoxic concentration
[10] = low sub-cytotoxic concentration

With CC1COC(Cn2cncn2)(c2ccc(Oc3ccc(Cl)cc3)cc2Cl)O1 (centres unmarked) [DIF, difenoconazole] the “CYP1A2 fm (fraction metabolized)” value (CYP1A2; Silensomes vs control-Silensomes) was “≈ 0%”, the “DIF remaining, CYP1A2-Silensomes” value (CYP1A2; after a 45-min incubation) was “about 20%” and the microsomal CLint at 1 µM (CYP1A2; human, pH 7.4) was 15.8 µL/min/mg. For the same compound, the “CLint, CYP3A4-Silensomes” value (CYP3A4 [1]; 1 µM DIF, 1 mg/mL, 37 °C) was 9.27 µL x min^−1 × mg^−1, the “DIF remaining, CYP3A4-Silensomes” value (CYP3A4 [1]; after 45 min) was about 40% and the EC50 at 72 h (WST-1 cytotoxicity assay) was 11.8 µg/mL (≈ 29 µM). For the same compound, the CYP3A4 fm (CYP3A4 [2]) was 43.3%, the UGT1A4 fm (UGT1A4) was 4.55% and the “ACOX1 log2FoldChange” value (HepaRG cells [3]; [9]) was -0.02489. For the same compound, the “AHR log2FoldChange” value (HepaRG cells [3]; [9]) was 0.5444, the “CD36 log2FoldChange” value (HepaRG cells [3]; [9]) was -0.5278 and the “FASN log2FoldChange” value (HepaRG cells [3]; [9]) was -0.3325. The “INSIG1 log2FoldChange” value (HepaRG cells [3]; [9]) was -1.049, the “MLXIPL log2FoldChange” value (HepaRG cells [3]; [9]) was 0.2472 and the “NR1H2 log2FoldChange” value (HepaRG cells [3]; [9]) was 0.8621. The “NR1H4 log2FoldChange” value (HepaRG cells [3]; [9]) was -0.4056, the “NR1I2 log2FoldChange” value (HepaRG cells [3]; [9]) was 0.3067 and the “NR1I3 log2FoldChange” value (HepaRG cells [3]; [9]) was -1.429. The “NR3C1 log2FoldChange” value (HepaRG cells [3]; [9]) was 0.4134, the “PPARA log2FoldChange” value (HepaRG cells [3]; [9]) was -0.3067 and the “PPARG log2FoldChange” value (HepaRG cells [3]; [9]) was 2.421. For the same compound, the “RARA log2FoldChange” value (HepaRG cells [3]; [9]) was 0.4466, the “RARB log2FoldChange” value (HepaRG cells [3]; [9]) was 1.042 and the “RARG log2FoldChange” value (HepaRG cells [3]; [9]) was 0.1102. The “SCD log2FoldChange” value (HepaRG cells [3]; [9]) was -0.7403, the “SREBF1 log2FoldChange” value (HepaRG cells [3]; [9]) was -1.013 and the “ACOX1 log2FoldChange” value (HepaRG cells [3]; [10]) was 0.1757. For the same compound, the “AHR log2FoldChange” value (HepaRG cells [3]; [10]) was -0.129, the “CD36 log2FoldChange” value (HepaRG cells [3]; [10]) was 0.878 and the “FASN log2FoldChange” value (HepaRG cells [3]; [10]) was 0.4404. The “INSIG1 log2FoldChange” value (HepaRG cells [3]; [10]) was 1.024, the “MLXIPL log2FoldChange” value (HepaRG cells [3]; [10]) was 0.1497 and the “NR1H2 log2FoldChange” value (HepaRG cells [3]; [10]) was 0.1806. The “NR1H4 log2FoldChange” value (HepaRG cells [3]; [10]) was 0.1474, the “NR1I2 log2FoldChange” value (HepaRG cells [3]; [10]) was 0.3965 and the “NR1I3 log2FoldChange” value (HepaRG cells [3]; [10]) was -0.3855. For the same compound, the “NR3C1 log2FoldChange” value (HepaRG cells [3]; [10]) was -0.2111, the “PPARA log2FoldChange” value (HepaRG cells [3]; [10]) was 0.07836 and the “PPARG log2FoldChange” value (HepaRG cells [3]; [10]) was 0.2447. The “RARA log2FoldChange” value (HepaRG cells [3]; [10]) was 0.1188, the “RARB log2FoldChange” value (HepaRG cells [3]; [10]) was 0.3597 and the “RARG log2FoldChange” value (HepaRG cells [3]; [10]) was 0.07285. For the same compound, the “SCD log2FoldChange” value (HepaRG cells [3]; [10]) was 0.5665, the “SREBF1 log2FoldChange” value (HepaRG cells [3]; [10]) was -0.5234 and the microsomal CLint at 1 µM (CYP2C9 [4]) was 12.5 µL/min/mg. For the same compound, the CYP2C9 fm (CYP2C9 [5]) was 5.41%, the EC50 at 72 h [6] was 15.9 µg/mL (≈ 39.1 µM) and the “DIF remaining, control-Silensomes” value ([7]; after a 45-min incubation) was “about 20%”. The microsomal CLint at 1 µM ([7]; human, pH 7.4) was 15.7 µL/min/mg and the “DIF remaining in the cell culture medium” value (HepaRG cells [8]) was about 4%.

— article PMC12367838, “Relevance of kinetic interactions and co-formulants for plant protection product liver toxicity in vitro” (Archives of Toxicology, 2025)
